Measurements taken from patent publication US20020137929A1, “1 - (3-heterocyclylphenyl) isothiourea, -isourea, -guanidine and -amidine herbicidal agents” (Intellectual Property Department, BASF Aktiengesellschaft, priority 1998, published 2002).

How the values were obtained:
[1] = tested on: ECHORC (Watergrass (Calif.)); experiment: Preemergence weed control under flooded paddy conditions; type: in vivo, Echinochloa oryzoides; conditions: rated 3-4 weeks after treatment
Method in brief: (§1)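 Ratings on a 0-9 visual scale cover stand, vigor, malformation, size, chlorosis and overall appearance relative to a control, taken three to four weeks post-treatment. Application was into flood water over freshly sown silt loam at roughly 0.0313 to 0.500 kg/ha.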

ABUTH (Velvetleaf) = experiment: Preemergence herbicidal evaluation; type: in vivo, Abutilon theophrasti; conditions: rated 4-5 weeks after treatment
Method in brief: (§2)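 Herbicidal effect scored visually, 0-9, at 4 to 5 weeks against a control; compound applied preemergence by aqueous acetone spray to seeded soil at about 0.0156 to 0.500 kg/ha.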

CYPIR (Rice Flatsedge) = experiment: Preemergence weed control under flooded paddy conditions; type: in vivo, Cyperus iria; conditions: rated 3-4 weeks after treatment
Method in brief: as §1

[2] = tested on: TRZAWR (Wheat, Winter, cv Riband); experiment: Preemergence herbicidal evaluation; type: in vivo, Triticum aestivum; conditions: rated 4-5 weeks after treatment
Method in brief: as §2

[3] = tested on: SAGPY (Arrowhead (Pygmaea)); experiment: Preemergence weed control under flooded paddy conditions; type: in vivo, Sagittaria pygmaea; conditions: rated 3-4 weeks after treatment
Method in brief: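 Using flooded silt loam (water 1.5 to 3 cm deep), seeds sown in the top 0.5 cm were exposed preemergence to compound pipetted into the flood at about 0.0313 to 0.500 kg/ha. Effects were scored 0-9 by eye three to four weeks later.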

SMILES	herbicidal effect rating, ECHORC ([1]; 0.0313 kg/ha)	herbicidal effect rating, ECHORC ([1]; 0.0625 kg/ha)	herbicidal effect rating, ECHORC ([1]; 0.1250 kg/ha)	herbicidal effect rating, ECHORC ([1]; 0.2500 kg/ha)	Preemergence herbicidal rating ABUTH (ABUTH (Velvetleaf); rate 0.0625 kg/ha)	Preemergence herbicidal rating ABUTH (ABUTH (Velvetleaf); rate 0.1250 kg/ha)	Preemergence herbicidal rating ABUTH (ABUTH (Velvetleaf); rate 0.2500 kg/ha)	Preemergence herbicidal rating ABUTH (ABUTH (Velvetleaf); rate 0.5000 kg/ha)	herbicidal effect rating, CYPIR (CYPIR (Rice Flatsedge); 0.0313 kg/ha)	herbicidal effect rating, CYPIR (CYPIR (Rice Flatsedge); 0.0625 kg/ha)	herbicidal effect rating, CYPIR (CYPIR (Rice Flatsedge); 0.1250 kg/ha)	herbicidal effect rating, CYPIR (CYPIR (Rice Flatsedge); 0.2500 kg/ha)	Preemergence herbicidal rating TRZAWR ([2]; rate 0.0625 kg/ha)	Preemergence herbicidal rating TRZAWR ([2]; rate 0.1250 kg/ha)	Preemergence herbicidal rating TRZAWR ([2]; rate 0.2500 kg/ha)	Preemergence herbicidal rating TRZAWR ([2]; rate 0.5000 kg/ha)	herbicidal effect rating, SAGPY ([3]; 0.0313 kg/ha)	herbicidal effect rating, SAGPY ([3]; 0.0625 kg/ha)	herbicidal effect rating, SAGPY ([3]; 0.1250 kg/ha)	herbicidal effect rating, SAGPY ([3]; 0.2500 kg/ha)	also measured
Cn1c(C(F)(F)F)cc(=O)n(-c2cc(N=C3SCC(=O)N3CC(=O)OCC3CC3)c(Cl)cc2F)c1=O [Compound 124, Cyclopropylmethyl 2-{{2-chloro-5-[3,6-dihydro-3-methyl-2,6-dioxo-4-(trifluoromethyl)-1(2H)-pyrimidinyl]-4-fluorophenyl}imino}-4-oxo-3-thiazolidineacetate]	5.0	5.0	9.0	8.0	0.0	2.0	4.0	7.0	0.0	0.0	0.0	6.0	0.0	0.0	0.0	0.0	0.0	0.0	4.0	5.0	Preemergence herbicidal rating ABUTH (ABUTH (Velvetleaf); rate 0.0156 kg/ha): 0.0; Preemergence herbicidal rating ABUTH (ABUTH (Velvetleaf); rate 0.0313 kg/ha): 0.0; Preemergence herbicidal rating TRZAWR ([2]; rate 0.0156 kg/ha): 0.0; Preemergence herbicidal rating TRZAWR ([2]; rate 0.0313 kg/ha): 0.0
CCOC(=O)CN1C(=O)C(SC)SC1=Nc1cc(-n2c(=O)cc(C(F)(F)F)n(C)c2=O)c(F)cc1Cl (stereo not drawn) [Compound 125, Ethyl 2-{{2-chloro-5-[3,6-dihydro-3-methyl-2,6-dioxo-4-(trifluoromethyl)-1(2H)-pyrimidinyl]-4-fluorophenyl}imino}-5-(methylthio)-4-oxo-3-thiazolidineacetate]	2.0	4.0	7.0	7.0	4.0	6.0	9.0	9.0	3.0	6.0	7.0	9.0	1.0	1.0	4.0	5.0	3.0	4.0	4.0	9.0	Preemergence herbicidal rating ABUTH (ABUTH (Velvetleaf); rate 0.0156 kg/ha): 0.0; Preemergence herbicidal rating ABUTH (ABUTH (Velvetleaf); rate 0.0313 kg/ha): 2.0; Preemergence herbicidal rating TRZAWR ([2]; rate 0.0156 kg/ha): 0.0; Preemergence herbicidal rating TRZAWR ([2]; rate 0.0313 kg/ha): 0.0
CCOC(=O)CN1C(=O)C(Cl)SC1=Nc1cc(-n2c(=O)cc(C(F)(F)F)n(C)c2=O)c(F)cc1Cl (stereo not drawn) [Compound 126, Ethyl 5-chloro-2-{{2-chloro-5-[3,6-dihydro-3-methyl-2,6-dioxo-4-(trifluoromethyl)-1(2H)-pyrimidinyl]-4-fluorophenyl}imino}-4-oxo-3-thiazolidineacetate]	0.0	3.0	6.0	7.0	5.0	5.0	9.0	9.0	0.0	0.0	0.0	2.0	0.0	0.0	0.0	0.0	0.0	0.0	3.0	3.0	–
CCOC(=O)CN1C(=O)C(C(=O)OCC)SC1=Nc1cc(-n2c(=O)cc(C(F)(F)F)n(C)c2=O)c(F)cc1Cl (stereo not drawn) [Compound 127, 5-Carboxy-2-{{2-chloro-5-[3,6-dihydro-3-methyl-2,6-dioxo-4-(trifluoromethyl)-1(2H)-pyrimidinyl]-4-fluorophenyl}imino}-4-oxo-3-thiazolidineacetic acid, diethyl ester]	4.0	7.0	9.0	9.0	7.0	9.0	9.0	9.0	2.0	2.0	4.0	4.0	0.0	0.0	0.0	7.0	0.0	0.0	0.0	3.0	Preemergence herbicidal rating ABUTH (ABUTH (Velvetleaf); rate 0.0313 kg/ha): 7.0; Preemergence herbicidal rating TRZAWR ([2]; rate 0.0313 kg/ha): 0.0
